Results on 74 compounds are retold here after US20250346584A1, “NOVEL KAPPA OPIOID LIGANDS” (The Scripps Research Institute, priority 2012, published 2025).

In this experiment the target is kappa opioid receptor (OPRK1) (Homo sapiens (Human), UniProt P41145). The experiment can be described thus: OPRK1 antagonist assay (b-arrestin-2-TEV / b-lactamase reporter cell line, EC80 U-50488 challenge). Format: cell-based. The settings on record: read-out: IC50 nM (% inhib if other than 50%); antagonist mode vs EC80 U-50488; NA = not active at concentrations up to 10 μM.
Sequence of kappa opioid receptor (OPRK1) (P41145 whole entry): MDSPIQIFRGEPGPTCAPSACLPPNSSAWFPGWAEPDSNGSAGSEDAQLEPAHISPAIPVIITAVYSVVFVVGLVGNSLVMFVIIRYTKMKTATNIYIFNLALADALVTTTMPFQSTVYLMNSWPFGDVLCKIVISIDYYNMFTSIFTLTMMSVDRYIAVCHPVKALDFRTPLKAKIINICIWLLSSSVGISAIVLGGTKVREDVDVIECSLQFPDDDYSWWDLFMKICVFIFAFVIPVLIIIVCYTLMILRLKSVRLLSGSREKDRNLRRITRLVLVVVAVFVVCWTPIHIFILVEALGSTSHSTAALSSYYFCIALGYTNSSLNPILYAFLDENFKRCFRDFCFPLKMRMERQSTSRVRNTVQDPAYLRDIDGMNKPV

For `Cc1noc(-c2cc3c(F)cccc3nc2N2CC[C@@H](NC3CCCCC3)[C@H](O)C2)n1` [compound 251], the IC50 is 11 nM.

In the case of `COC1CN(c2nc3cccc(F)c3cc2-c2nc(C)no2)CCC1NC1CCCCC1` (centres unmarked) [compound 252], the IC50 is 12 nM.

As for `Cc1noc(-c2cc3c(F)cccc3nc2N2CCC(NC3CCCCC3)C(CO)C2)n1` (centres unmarked) [compound 253], the IC50 was determined as 10 nM.

`Cc1ccc2nc(N3CCC(NC4CCOC4)CC3)c(-c3nc(C)no3)cc2c1` (centres unmarked) [compound 254]: the IC50 is 8 nM.

Take `Cc1ccc2nc(N3CCC(NC4CCCC(O)C4)CC3)c(-c3nc(C)no3)cc2c1` (centres unmarked) [compound 255]: the IC50 worked out at 10 nM.

Consider `Cc1ccc2cc(-c3nc(C)no3)c(N3CCC(NC4CCCCC4O)CC3)nc2c1` (centres unmarked) [compound 256], for which the IC50 stood at 631 nM.

As to `Cc1ccc2cc(-c3nc(C)no3)c(N3CCC(NC4CCOCC4)CC3)nc2c1` [compound 257], the IC50 turned out to be 930 nM.

Take `COC1CN(c2nc3ccccc3cc2C2=NCC(C)O2)CCC1NC1CCCCC1` (centres unmarked) [compound 258]: the IC50 was 7160 nM.

For `COC1CN(c2nc3ccccc3cc2C2=NC(C)CO2)CCC1NC1CCCCC1` (centres unmarked) [compound 259], the IC50 came out at 372 nM.

Turning to `Cc1ccc2nc(N3CCC(NC4CCCCCCC4)CC3)c(-c3nc(C)no3)cc2c1` [compound 260], the IC50 came out at 261 nM.

Take `Cc1ccc2nc(N3CCC(NCC4CCCCC4)CC3)c(-c3nc(C)no3)cc2c1` [compound 261]: the IC50 was determined as 1470 nM.

`Cc1ccc2nc(N3CCC(NCC4CCCO4)CC3)c(-c3nc(C)no3)cc2c1` (centres unmarked) [compound 262]: the IC50 was found to be 60 nM.

Take `COC1CN(c2nc3ccccc3cc2-c2ncccn2)CCC1NC1CCCCC1` (centres unmarked) [compound 263]: the IC50 is 1770 nM.

`OCC1CN(c2nc3ccccc3cc2-c2ncccn2)CCC1NC1CCCCC1` (centres unmarked) [compound 264]: the IC50 turned out to be 56 nM.

For the compound `Cc1ccc2nc(N3CCC(NC4CC5CCC4C5)CC3)c(-c3nc(C)no3)cc2c1` (centres unmarked) [compound 265], the IC50 was found to be 49 nM.

Consider `Cc1ccc2nc(N3CCC(N4CCCCC4)CC3)c(-c3nc(C)no3)cc2c1` [compound 266], for which the IC50 came out at 1740 nM.

Take `Cc1ccc2nc(N3CCC(N(C)C4CCOCC4)CC3)c(-c3nc(C)no3)cc2c1` [compound 267]: the IC50 was found to be 180 nM.

Take `CCc1ccc2nc(N3CCC(NC4CCCCC4)C(OC)C3)c(-c3nc(C)no3)cc2c1` (centres unmarked) [compound 268]: the IC50 came to 37 nM.

As for `CCc1ccc2nc(N3CCC(NC4CCCCC4)C(CO)C3)c(-c3nc(C)no3)cc2c1` (centres unmarked) [compound 269], the IC50 worked out at 30 nM.

Take `Cc1ccc2nc(N3CCC(NC4COC4)CC3)c(-c3nc(C)no3)cc2c1` [compound 270]: the IC50 came out at 4470 nM.

For the compound `Cc1ccc2nc(N3CCC(NC4(C)CCOCC4)CC3)c(-c3nc(C)no3)cc2c1` [compound 271], the IC50 was determined as 419 nM.

With `Cc1cc(-c2nc(C)no2)c(N2CCC(NC3CCOCC3)CC2)nn1` [compound 272], the IC50 turned out to be 8700 nM.

Turning to `Cc1ccc2nc(N3CCC(NC4CC(C)OC(C)C4)CC3)c(-c3nc(C)no3)cc2c1` (centres unmarked) [compound 274], the IC50 is 50 nM.

Turning to `Cc1noc(-c2cc3cccc(C)c3nc2N2CCC(NC3CCOCC3)CC2)n1` [compound 275], the IC50 amounted to 98 nM.

For the compound `COC1CN(c2nc3c(C)cccc3cc2-c2nc(C)no2)CCC1NC1CCCCC1` (centres unmarked) [compound 276], the IC50 was determined as 18 nM.

`Cc1noc(-c2cc3cccc(C)c3nc2N2CCC(NC3CCCCC3)C(CO)C2)n1` (centres unmarked) [compound 277]: the IC50 is 9 nM.

On to `CNC(=O)c1cc2cc(C)ccc2nc1N1CCC(NC2CCCCC2)C(OC)C1` (centres unmarked) [compound 278], for which the half-maximal inhibitory concentration (IC50) was 4720 nM.

Take `COC1CN(c2nc3ccc(C)cc3cc2C(=O)N(C)C)CCC1NC1CCCCC1` (centres unmarked) [compound 279]: the IC50 came out at 96 nM.

With `Cc1ccc2nc(N3CCC(NC4CCCCC4)C(CO)C3)c(C(=O)N(C)C)cc2c1` (centres unmarked) [compound 280], the IC50 was 99 nM.

`CCOC(=O)c1cc2cc(C)ccc2nc1N1CCC(NC2CCCCC2)C(OC)C1` (centres unmarked) [compound 281]: the IC50 came out at 30 nM.

Regarding `COC1CN(c2nc3ccc(C)cc3cc2C(=O)OC(C)C)CCC1NC1CCCCC1` (centres unmarked) [compound 282], the IC50 is 38 nM.

With `CCc1noc(-c2cc3cc(C)ccc3nc2N2CCC(NC3CCCCC3)C(OC)C2)n1` (centres unmarked) [compound 283], the IC50 worked out at 4 nM.

Turning to `CCc1noc(-c2cc3cc(C)ccc3nc2N2CCC(NC3CCCCC3)C(CO)C2)n1` (centres unmarked) [compound 284], the IC50 worked out at 20 nM.

As for `c1cnc(-c2cc3ccccc3nc2N2CCC(NC3CCOCC3)CC2)nc1` [compound 286], the IC50 amounted to 298 nM.

Take `CCOC(=O)c1cc2cc(C)ccc2nc1N1CCC(NC2CCCCC2)C(CO)C1` (centres unmarked) [compound 288]: the IC50 came to 15 nM.

Consider `CCOC(=O)c1cc2cc(C)ccc2nc1N1CCC(NC2CCOCC2)CC1` [compound 289], for which the IC50 was 184 nM.

Regarding `CCc1noc(-c2cc3cc(C)ccc3nc2N2CCC(NC3CCOCC3)CC2)n1` [compound 290], the IC50 was determined as 47 nM.

As for `Cc1ccc2nc(N3CCC(NC4CCCCC4)C(CO)C3)c(C(=O)OC(C)C)cc2c1` (centres unmarked) [compound 291], the IC50 was found to be 18 nM.

Consider `COC1CN(c2nc3ccccc3cc2-c2nc(C)no2)CCC1NC1CCCCC1` (centres unmarked) [compound 292], for which the IC50 was 33 nM.

Take `COC1CN(c2nc3ccc(C)cc3cc2-c2nc(C)no2)CCC1NC1CCCCC1` (centres unmarked) [compound 293]: the IC50 is 20 nM.

As for `CO[C@H]1CN(c2nc3ccc(C)cc3cc2-c2nc(C)no2)CC[C@H]1NC1CCCCC1` [compound 294], the IC50 turned out to be 0.7 nM.

With `CO[C@H]1CN(c2nc3ccccc3cc2-c2nc(C)no2)CC[C@H]1NC1CCCCC1` [compound 295], the IC50 was 2 nM.

As to `CO[C@H]1CN(c2nc3ccc(F)cc3cc2-c2nc(C)no2)CC[C@H]1NC1CCCCC1` [compound 296], the IC50 was determined as 10 nM.

Turning to `CCc1noc(-c2cc3cc(C)ccc3nc2N2CC[C@@H](NC3CCCCC3)[C@@H](OC)C2)n1` [compound 297], the IC50 came out at 2 nM.

As to `CO[C@H]1CN(c2ncc(C)cc2-c2nc(C)no2)CC[C@H]1NC1CCCCC1` [compound 299], the IC50 is 25 nM.

Turning to `CO[C@H]1CN(c2nc(C)c(C)cc2-c2nc(C)no2)CC[C@H]1NC1CCCCC1` [compound 300], the IC50 was 16 nM.

Regarding `Cc1ccc2nc(N3CCC(NC4CCCCC4)C(CO)C3)c(-c3nnc(C)o3)cc2c1` (centres unmarked) [compound 301], the IC50 worked out at 38 nM.

With `Cc1ccc2nc(N3CCC(NC4CCOCC4)CC3)c(C(=O)OC(C)C)cc2c1` [compound 302], the IC50 worked out at 274 nM.

As to `COC1CN(c2nc3ccc(C)cc3cc2-c2nc(C3CC3)no2)CCC1NC1CCCCC1` (centres unmarked) [compound 303], the IC50 is 0.5 nM.

With `Cc1ccc2nc(N3CCC(NC4CCCCC4)C(CO)C3)c(-c3nc(C4CC4)no3)cc2c1` (centres unmarked) [compound 304], the IC50 was 3.5 nM.

Take `Cc1ccc2nc(N3CCC(NC4CCOCC4)CC3)c(-c3nc(C4CC4)no3)cc2c1` [compound 305]: the IC50 turned out to be 17 nM.

Consider `COC1CN(c2nc3cc(C)c(C)cc3cc2-c2nc(C)no2)CCC1NC1CCCCC1` (centres unmarked) [compound 306], for which the IC50 turned out to be 107 nM.

Consider `Cc1noc(-c2cc3cc(C)c(C)cc3nc2N2CCC(NC3CCCCC3)C(CO)C2)n1` (centres unmarked) [compound 307], for which the IC50 came to 41 nM.

`COC1CN(c2nc3ccccc3cc2-c2nc(C)no2)CCC1NC1CCCC1` (centres unmarked) [compound 308]: the IC50 was 2.5 nM.

As to `COC1CN(c2nc3ccc(C)cc3cc2-c2nc(C)no2)CCC1NC1CCCC1` (centres unmarked) [compound 309], the IC50 worked out at 0.5 nM.

Regarding `CCc1noc(-c2cc3cc(C)ccc3nc2N2CCC(NC3CCCC3)C(OC)C2)n1` (centres unmarked) [compound 310], the IC50 was found to be 4 nM.

Turning to `COC1CN(c2nc3ccccc3cc2-c2nc(C)no2)CCC1NC1CCCCCC1` (centres unmarked) [compound 311], the IC50 was found to be 1 nM.

Take `COC1CN(c2nc3ccc(C)cc3cc2-c2nc(C)no2)CCC1NC1CCCCCC1` (centres unmarked) [compound 312]: the IC50 came to 0.7 nM.

For the compound `CCc1noc(-c2cc3cc(C)ccc3nc2N2CCC(NC3CCCCCC3)C(OC)C2)n1` (centres unmarked) [compound 313], the IC50 was found to be 1.5 nM.

As for `COC1CN(c2ncc(C)cc2-c2nc(C)no2)CCC1NC1CCCC1` (centres unmarked) [compound 316], the IC50 is 23 nM.

With `COC1CN(c2nc(C)c(C)cc2-c2nc(C)no2)CCC1NC1CCCC1` (centres unmarked) [compound 317], the IC50 stood at 27 nM.

On to `COC1CN(c2ncc(C)cc2-c2nc(C)no2)CCC1NC1CCCCCC1` (centres unmarked) [compound 318], for which the IC50 came to 19 nM.

`COC1CN(c2nc(C)c(C)cc2-c2nc(C)no2)CCC1NC1CCCCCC1` (centres unmarked) [compound 319]: the IC50 is 21 nM.

For `COC1CN(c2ncc(C)cc2-c2nc(C)no2)CCC1NC1CCOCC1` (centres unmarked) [compound 320], the IC50 was determined as 170 nM.

Turning to `COC1CN(c2nc(C)c(C)cc2-c2nc(C)no2)CCC1NC1CCOCC1` (centres unmarked) [compound 321], the IC50 is 105 nM.

Turning to `COC1CN(c2nc3ccc(C)cc3cc2C(=O)N2CCCC2)CCC1NC1CCCCC1` (centres unmarked) [compound 323], the IC50 worked out at 1340 nM.

As for `COC1CN(c2nc3ccccc3cc2-c2nc(C)no2)CCC1NC1CCOCC1` (centres unmarked) [compound 325], the IC50 was 8 nM.

Consider `COC1CN(c2nc3ccc(C)cc3cc2-c2nc(C)no2)CCC1NC1CCOCC1` (centres unmarked) [compound 326], for which the half-inhibitory concentration (IC50) came to 1.9 nM.

Regarding `CCc1noc(-c2cc3cc(C)ccc3nc2N2CCC(NC3CCOCC3)C(OC)C2)n1` (centres unmarked) [compound 327], the IC50 was 5.6 nM.

Take `CO[C@@H]1CN(c2nc3ccc(F)cc3cc2-c2nc(C)no2)CC[C@@H]1NC1CCCCC1` [compound 331]: the IC50 came to 27 nM.

For `Cc1ccc2nc(N3CCC(NC4CCOCC4)CC3)c(-c3noc(C)n3)cc2c1` [compound 332], the IC50 worked out at 19 nM.

`CCOC(=O)c1noc(-c2cc3cc(C)ccc3nc2N2CCC(NC3CCCCC3O)CC2)n1` (centres unmarked) [compound 336]: the IC50 was 4360 nM.

Take `CO[C@H]1CN(c2nc3ccc(C)cc3cc2-c2noc(C)n2)CC[C@H]1NC1CCCCC1` [compound 338]: the IC50 was 0.99 nM.

With `CO[C@H]1CN(c2nc3ccc(C)cc3cc2C(=O)OC(C)C)CC[C@H]1NC1CCCCC1` [compound 343], the IC50 is 10.6 nM.
